Laboratory results: PMC6986443, “T‐495, a novel low cooperative M1 receptor positive allosteric modulator, improves memory deficits associated with cholinergic dysfunction and is characterized by low gastrointestinal side effect risk” (Pharmacology Research & Perspectives, 2020)

Assays:
[1] = system: CaMKIIα‐tTA/A53T α‐syn dTg mice; assay: Y‐maze task; format: in vivo, mouse; settings: 3 mg/kg p.o.
Method: The Y‐maze was fabricated from gray plastic and consisted of three arms (40 cm long, 12 cm high, 3 cm wide at the bottom, and 10 cm wide at the top) with an angle of 120°. Visual cues were placed outside each arm, and the apparatus was illuminated at 10 lux. […] An arm entry was defined as all four paws of the mouse being in the arm, and the sequence of arm entries was monitored with a video camera and counted manually. An alternation was defined as successive entries into the three arms on overlapping triplet sets.36 The percentage of alternation was calculated as the ratio of actual to possible alternations (total number of arm entries minus 2) multiplied by 100.

[2] = system: CaMKIIα‐tTA/A53T α‐syn dTg mice; assay: Contextual fear conditioning (CFC) test; format: in vivo, mouse
Method: The CFC test was performed in a clear conditioning chamber (33 cm wide, 25 cm long, and 28 cm high; O’Hara & Co., Ltd.) surrounded by a sound‐attenuating box. The illumination in the chamber was maintained at 100 lux. Conditioned stimulus (CS) and unconditioned stimulus (US) were automatically delivered by a tone generator and a shock generator (O’Hara & Co., Ltd.), respectively. On Day 1 (habituation phase), vehicle was orally administered, and mice were placed in the conditioning chamber. They were allowed to freely explore for 120 seconds and then returned to their home cages. […] Mice were placed in the chamber for 120 seconds before the onset of a tone (CS, 60 dB for 30 s). The last 2 seconds of the CS were paired with a foot shock (US, 0.25 mA), and mice were removed and returned to their home cages 180 seconds after the US. […] Mice were again placed in the same chamber for 180 seconds. Freezing behavior was analyzed using ImageJ FZ4 (O’Hara & Co., Ltd.) during the conditioning and retention phases.

[3] = target: T1, human M1R (Homo sapiens, UniProt P11229); assay: [3H]‐NMS binding assay; set-up: expressed in transfected cells
T1 sequence (P11229 1-460): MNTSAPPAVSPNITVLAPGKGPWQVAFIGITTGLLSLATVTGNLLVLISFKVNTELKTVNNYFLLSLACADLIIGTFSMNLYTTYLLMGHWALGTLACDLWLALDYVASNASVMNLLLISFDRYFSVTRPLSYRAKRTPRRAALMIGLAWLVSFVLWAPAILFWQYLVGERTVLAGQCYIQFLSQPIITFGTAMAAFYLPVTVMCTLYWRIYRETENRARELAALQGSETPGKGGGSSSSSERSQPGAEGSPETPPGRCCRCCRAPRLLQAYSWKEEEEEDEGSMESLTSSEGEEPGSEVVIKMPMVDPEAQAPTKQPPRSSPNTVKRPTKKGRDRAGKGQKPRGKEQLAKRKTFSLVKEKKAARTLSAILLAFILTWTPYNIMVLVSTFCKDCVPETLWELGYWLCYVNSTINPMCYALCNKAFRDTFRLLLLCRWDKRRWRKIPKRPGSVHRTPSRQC
Method: Cell membranes from FreeStyle 293 cells transiently expressing human M1R were incubated with T‐495 (0.01‐30 μmol/L) and 0.2 nmol/L [^3H]‐NMS (PerkinElmer) in assay buffer as described above. After 2 hours at room temperature, the binding was terminated by filtration through GF/C filter plates using a cell harvester and washed five times with 300 μl of 50 mmol/L Tris‐HCl. GF/C plates were dried at 42°C and then 25 μl of microscint 0 was added. Radioactivity was measured by Topcount.

[4] = system: selectivity panel; settings: cited from earlier work
[5] = system: patients with AD; set-up: method as in PMID 29955661; settings: cited from earlier work

Structure (SMILES) | reduced percentage of alternations [1] | level of freezing behavior during the conditioning phase ([2]; 3 mg/kg p.o.) | reduced level of freezing behavior during the retention phase ([2]; 3 mg/kg p.o. 1 h before conditioning and retention) | concentration without inhibition of [3H]‐NMS binding relative to that required for procognitive efficacy [3] | inhibition of [3H]‐NMS binding to M1R ([3]; T‐495 concentrations below 30 μmol/L) | selectivity in a selectivity panel [4] | cognition as adjunctive therapy with AChEIs [5] | patients affected by diarrhea ([5]; estimated effective dose) [%]
Cc1c(Cc2ccc(Cl)nc2)cc2c(c1Cl)OCN([C@H]1CCC[C@@H]1O)C2=O [T‐495, 8‐chloro‐6‐((6‐chloropyridin‐3‐yl)methyl)‐3‐((1S,2S)‐2‐hydroxycyclopentyl)‐7‐methyl‐2,3‐dihydro‐4H‐1,3‐benzoxazin‐4‐one] | significantly reversed | did not change | significantly reversed | up to 100 fold | did not inhibit |  |  | 
Cc1ccc(Cc2cc3c(=O)n([C@H]4CCCC[C@@H]4O)cnc3c3ccccc23)cn1 [MK‐7622, 3‐((1S,2S)‐2‐hydroxycyclohexyl)‐6‐((6‐methylpyridin‐3‐yl)methyl)benzo[h]quinazolin‐4(3H)‐one, reference compound] |  |  |  |  |  | exhibited inhibitory activities only against 5‐lipoxygenase and phosphodiesterase 4 | did not improve cognition | 15
